pIC50: −log10 of the molar value.
Legend:
[1] = test system: TGF-β signaling (TGF-β pSMAD, MPC-11); assay: AlphaScreen SureFire SMAD3 (p-Ser423/425) assay, inhibition of TGF-β signaling; type: cell-based; details: Mus musculus, MPC-11, inhibition of TGF-β signaling, p-SMAD3 readout
[2] = test system: GDF8 signaling (GDF pSMAD, MPC11); assay: AlphaScreen SureFire SMAD3 (p-Ser423/425) assay, inhibition of GDF8 signaling; type: cell-based; details: Mus musculus, MPC-11, inhibition of GDF8 signaling, p-SMAD3 readout

Compound	pIC50 [1]	pIC50 [2]
CCc1nc(-c2ccc(F)cc2)c(-c2ccc3[nH]ncc3c2)[nH]1 [Compound 119, 5-(2-Ethyl-4-(4-fluorophenyl)-1H-imidazol-5-yl)-1H-indazole]	5.32	6.39
CCc1nc(-c2cc(F)cc(Cl)c2)c(-c2ccc3[nH]ncc3c2)[nH]1 [Compound 139, 5-(4-(3-Chloro-5-fluorophenyl)-2-ethyl-1H-imidazol-5-yl)-1H-indazole]	5.69	6.19
Cc1cccc(-c2nc(C)n(C)c2-c2ccc3[nH]ncc3c2)c1 [Compound 56, 5-(1,2-Dimethyl-4-(m-tolyl)-1H-imidazol-5-yl)-1H-indazole]	5.28	6.14
COc1ccc(-c2ncn(C)c2-c2ccc3[nH]ncc3c2)cc1 [Compound 69, 5-(4-(4-Methoxyphenyl)-1-methyl-1H-imidazol-5-yl)-1H-indazole]	5.75	6.85
Cc1nc(-c2cc(F)c(F)cc2F)c(-c2ccc3ncccc3c2)[nH]1 [Compound 100, 6-(2-Methyl-4-(2,4,5-trifluorophenyl)-1H-imidazol-5-yl)quinoline]	5.86	6.77
Cn1cnc(-c2ccc(F)cc2)c1-c1ccc2cn[nH]c2c1 [Compound 49, 6-(4-(4-Fluorophenyl)-1-methyl-1H-imidazol-5-yl)-1H-indazole]	5.92	6.24
Cn1cnc(-c2ccc(F)cc2)c1-c1ccc2ncsc2c1 [Compound 51, 6-(4-(4-Fluorophenyl)-1-methyl-1H-imidazol-5-yl)benzo[d]thiazole]	5.57	6.11
c1ccc(-c2nc[nH]c2-c2ccc3cn[nH]c3c2)cc1 [Compound 2, 6-(4-Phenyl-1H-imidazol-5-yl)-1H-indazole]	6.70	7.22
CCc1nc(-c2ccc(F)c(C)c2)c(-c2ccc3cn[nH]c3c2)[nH]1 [Compound 107, 6-(2-Ethyl-4-(4-fluoro-3-methylphenyl)-1H-imidazol-5-yl)-1H-indazole]	5.73	6.47
COc1ccc(-c2nc(N)sc2-c2ccc3[nH]ncc3c2)cc1 [Compound 157, 5-(1H-indazol-5-yl)-4-(4-methoxyphenyl)thiazol-2-amine]	6.80	7.59
Cc1nc(-c2cc(F)c(F)c(F)c2)c(-c2ccc3ncccc3c2)[nH]1 [Compound 95, 6-(2-Methyl-4-(3,4,5-trifluorophenyl)-1H-imidazol-5-yl)quinoline]	5.73	6.52
Cc1cc(-c2nc(N)sc2-c2ccc3ncsc3c2)ccc1F [Compound 162, 5-(benzo[d]thiazol-6-yl)-4-(4-fluoro-3-methylphenyl)thiazol-2-amine]	6.89	7.28
Cc1cccc(-c2nc[nH]c2-c2ccc3nccnc3c2)c1 [Compound 20, 6-(4-(m-Tolyl)-1H-imidazol-5-yl)quinoxaline]	6.80	6.74
Cc1nc(-c2cc(F)c(F)cc2F)c(-c2ccc3[nH]ncc3c2)[nH]1 [Compound 97, 5-(2-Methyl-4-(2,4,5-trifluorophenyl)-1H-imidazol-5-yl)-1H-indazole]	6.27	7.00
CCc1nc(-c2cc(C)cc(F)c2)c(-c2ccc3nccnc3c2)[nH]1 [Compound 147, 6-(2-Ethyl-4-(3-fluoro-5-methylphenyl)-1H-imidazol-5-yl)quinoxaline]	5.66	6.26
Cn1cnc2ccc(-c3[nH]cnc3-c3ccc(F)cc3)cc21 [Compound 12, 6-(4-(4-Fluorophenyl)-1H-imidazol-5-yl)-1-methyl-1H-benzo[d]imidazole]	6.57	6.89
Cc1cc(-c2ncsc2-c2ccc3cn[nH]c3c2)ccc1F [Compound 159, 4-(4-fluoro-3-methylphenyl)-5-(1H-indazol-6-yl)thiazole]	6.77	7.44
Fc1ccc(-c2nc[nH]c2-c2ccc3cn[nH]c3c2)cc1 [Compound 11, 6-(4-(4-Fluorophenyl)-1H-imidazol-5-yl)-1H-indazole]	6.89	7.40
CCc1nc(-c2ccc(F)cc2)c(-c2ccc3cn[nH]c3c2)[nH]1 [Compound 120, 6-(2-Ethyl-4-(4-fluorophenyl)-1H-imidazol-5-yl)-1H-indazole]	5.09	6.33
Cc1cccc(-c2ncn(C)c2-c2ccc3ncn(C)c3c2)c1 [Compound 43, 1-Methyl-6-(1-methyl-4-(m-tolyl)-1H-imidazol-5-yl)-1H-benzo[d]imidazole]	6.28	6.72
Nc1nc(-c2cccc(F)c2)c(-c2ccc3nccnc3c2)s1 [Compound 183, 4-(3-fluorophenyl)-5-(quinoxalin-6-yl)thiazol-2-amine]	5.83	6.44
Cc1cc(-c2ncsc2-c2ccc3ncsc3c2)ccc1F [Compound 165, 6-(4-(4-fluoro-3-methylphenyl)thiazol-5-yl)benzo[d]thiazole]	6.58	7.16
Cc1cccc(-c2nc(C)n(C)c2-c2ccc3cn[nH]c3c2)c1 [Compound 57, 6-(1,2-Dimethyl-4-(m-tolyl)-1H-imidazol-5-yl)-1H-indazole]	5.04	6.15
CCc1nc(-c2ccc(F)c(C)c2)c(-c2ccc3ncsc3c2)[nH]1 [Compound 109, 6-(2-Ethyl-4-(4-fluoro-3-methylphenyl)-1H-imidazol-5-yl)benzo[d]thiazole]	6.06	6.82
COc1ccc(-c2ncn(C)c2-c2ccc3cn[nH]c3c2)cc1 [Compound 70, 6-(4-(4-Methoxyphenyl)-1-methyl-1H-imidazol-5-yl)-1H-indazole]	5.28	6.15
Cc1cc(-c2nc[nH]c2-c2ccc3cn[nH]c3c2)ccc1F [Compound 4, 6-(4-(4-Fluoro-3-methylphenyl)-1H-imidazol-5-yl)-1H-indazole]	7.70	8.00

Second part, the compound after the results:

pIC50 [1]	pIC50 [2]	Compound
5.87	6.54	CCc1nc(-c2cccc(Cl)c2)c(-c2ccc3nccnc3c2)[nH]1 [Compound 129, 6-(4-(3-Chlorophenyl)-2-ethyl-1H-imidazol-5-yl)quinoxaline]
5.75	6.36	Cc1cccc(-c2ncn(C)c2-c2ccc3nccn3c2)c1 [Compound 45, 6-(1-Methyl-4-(m-tolyl)-1H-imidazol-5-yl)imidazo[1,2-a]pyridine]
5.89	6.66	Cc1nc(-c2ccc(F)c(F)c2)c(-c2ccc3ncsc3c2)[nH]1 [Compound 86, 6-(4-(3,4-Difluorophenyl)-2-methyl-1H-imidazol-5-yl)benzo[d]thiazole]
6.94	7.84	Cc1cccc(-c2ncsc2-c2ccc3[nH]ncc3c2)c1 [Compound 154, 5-(1H-indazol-5-yl)-4-(m-tolyl)thiazole]
5.87	6.27	CCc1nc(-c2cccc(Cl)c2)c(-c2ccc3[nH]ncc3c2)[nH]1 [Compound 124, 5-(4-(3-Chlorophenyl)-2-ethyl-1H-imidazol-5-yl)-1H-indazole]
5.64	6.33	Cc1nc(-c2cc(F)c(F)c(F)c2)c(-c2ccc3ncnn3c2)[nH]1 [Compound 92, 6-(2-Methyl-4-(3,4,5-trifluorophenyl)-1H-imidazol-5-yl)-[1,2,4]triazolo[1,5-a]pyridine]
5.66	6.48	CCc1nc(-c2cccc(C)c2)c(-c2ccc3nccn3c2)[nH]1 [Compound 117, 6-(2-Ethyl-4-(m-tolyl)-1H-imidazol-5-yl)imidazo[1,2-a]pyridine]
6.92	7.30	CCc1nc(-c2cccc(Cl)c2)c(-c2ccc3ncnn3c2)[nH]1 [Compound 125, 6-(4-(3-Chlorophenyl)-2-ethyl-1H-imidazol-5-yl)-[1,2,4]triazolo[1,5-a]pyridine]
6.68	7.95	Cc1cccc(-c2ncsc2-c2ccc3cn[nH]c3c2)c1 [Compound 153, 5-(1H-indazol-6-yl)-4-(m-tolyl)thiazole]
6.19	6.52	Fc1ccc(-c2nc[nH]c2-c2ccc3nccn3c2)cc1F [Compound 35, 6-(4-(3,4-Difluorophenyl)-1H-imidazol-5-yl)imidazo[1,2-a]pyridine]
6.07	6.46	FC(F)(F)c1nc(-c2cccc(Cl)c2)c(-c2ccc3ncnn3c2)[nH]1 [Compound 150, 6-(4-(3-Chlorophenyl)-2-(trifluoromethyl)-1H-imidazol-5-yl)-[1,2,4]triazolo[1,5-a]pyridine]
5.35	6.10	CCc1nc(-c2ccc(F)c(C)c2)c(-c2ccc3ncccc3c2)[nH]1 [Compound 111, 6-(2-Ethyl-4-(4-fluoro-3-methylphenyl)-1H-imidazol-5-yl)quinoline]
5.98	6.60	CCc1nc(-c2ccc(F)c(C)c2)c(-c2ccc3nccn3c2)[nH]1 [Compound 110, 6-(2-Ethyl-4-(4-fluoro-3-methylphenyl)-1H-imidazol-5-yl)imidazo[1,2-a]pyridine]
6.82	7.52	Cc1cccc(-c2ncn(C)c2-c2ccc3cn[nH]c3c2)c1 [Compound 42, 6-(1-Methyl-4-(m-tolyl)-1H-imidazol-5-yl)-1H-indazole]
6.03	6.81	Nc1nc(-c2cccc(C(F)(F)F)c2)c(-c2ccc3[nH]ncc3c2)s1 [Compound 175, 5-(1H-indazol-5-yl)-4-(3-(trifluoromethyl)phenyl)thiazol-2-amine]
5.93	6.40	COc1cccc(-c2nc(N)sc2-c2ccc3nccn3c2)c1 [Compound 184, 5-(imidazo[1,2-a]pyridin-6-yl)-4-(3-methoxyphenyl)thiazol-2-amine]
–	6.54	Cn1cnc2ccc(-c3[nH]cnc3-c3cccc(F)c3)cc21 [Compound 29, 6-(4-(3-Fluorophenyl)-1H-imidazol-5-yl)-1-methyl-1H-benzo[d]imidazole]

— patent US10287295B2, “TGF-β inhibitors” (Rigel Pharmaceuticals, Inc., priority 2015, dated 2019)
